Measured values from article PMC1084349 (BMC Neuroscience, 2005).
Where a SMILES comes first, the peptide text is derived from it.

molecular target: T1, rTas1r2-rTas1r3 V738A (Rattus norvegicus, UniProt Q923K1+Q9Z0R7, V738A); assay: Calcium mobilization (FLIPR), rTas1r3-V738A variant; format: cell-based; conditions: asp 15 mM; cyc 30 mM; neo 0.1 mM; sac 10 mM; suc 100 mM; stev 1 mM
T1 construct: expressed in transfected cells; host or cells: HEK293T cells stably expressing Gα16gust44
T1 sequence (Q9Z0R7 20-843): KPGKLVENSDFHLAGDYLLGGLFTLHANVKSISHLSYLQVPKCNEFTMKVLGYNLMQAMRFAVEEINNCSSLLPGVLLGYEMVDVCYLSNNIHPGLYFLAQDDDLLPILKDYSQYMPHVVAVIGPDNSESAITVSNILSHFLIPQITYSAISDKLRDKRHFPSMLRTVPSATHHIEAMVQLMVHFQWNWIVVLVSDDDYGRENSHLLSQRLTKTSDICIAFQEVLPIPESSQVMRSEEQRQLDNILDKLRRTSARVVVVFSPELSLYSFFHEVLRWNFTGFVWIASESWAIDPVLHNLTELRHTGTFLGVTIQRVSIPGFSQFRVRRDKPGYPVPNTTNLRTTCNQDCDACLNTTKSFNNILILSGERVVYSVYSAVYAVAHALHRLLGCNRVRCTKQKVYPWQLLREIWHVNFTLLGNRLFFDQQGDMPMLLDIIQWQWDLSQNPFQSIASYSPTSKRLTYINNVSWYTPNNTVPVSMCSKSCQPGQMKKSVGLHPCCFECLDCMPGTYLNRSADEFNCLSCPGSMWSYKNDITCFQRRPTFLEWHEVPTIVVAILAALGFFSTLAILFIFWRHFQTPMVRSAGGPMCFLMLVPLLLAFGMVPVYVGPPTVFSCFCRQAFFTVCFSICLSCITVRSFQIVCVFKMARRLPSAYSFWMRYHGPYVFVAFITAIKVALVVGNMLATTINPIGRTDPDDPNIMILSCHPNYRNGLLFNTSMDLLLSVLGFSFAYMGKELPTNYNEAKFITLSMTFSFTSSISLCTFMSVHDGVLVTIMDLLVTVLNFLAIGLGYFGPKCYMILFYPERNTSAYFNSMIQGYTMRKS
T1 sequence (Q923K1 21-858 V738A): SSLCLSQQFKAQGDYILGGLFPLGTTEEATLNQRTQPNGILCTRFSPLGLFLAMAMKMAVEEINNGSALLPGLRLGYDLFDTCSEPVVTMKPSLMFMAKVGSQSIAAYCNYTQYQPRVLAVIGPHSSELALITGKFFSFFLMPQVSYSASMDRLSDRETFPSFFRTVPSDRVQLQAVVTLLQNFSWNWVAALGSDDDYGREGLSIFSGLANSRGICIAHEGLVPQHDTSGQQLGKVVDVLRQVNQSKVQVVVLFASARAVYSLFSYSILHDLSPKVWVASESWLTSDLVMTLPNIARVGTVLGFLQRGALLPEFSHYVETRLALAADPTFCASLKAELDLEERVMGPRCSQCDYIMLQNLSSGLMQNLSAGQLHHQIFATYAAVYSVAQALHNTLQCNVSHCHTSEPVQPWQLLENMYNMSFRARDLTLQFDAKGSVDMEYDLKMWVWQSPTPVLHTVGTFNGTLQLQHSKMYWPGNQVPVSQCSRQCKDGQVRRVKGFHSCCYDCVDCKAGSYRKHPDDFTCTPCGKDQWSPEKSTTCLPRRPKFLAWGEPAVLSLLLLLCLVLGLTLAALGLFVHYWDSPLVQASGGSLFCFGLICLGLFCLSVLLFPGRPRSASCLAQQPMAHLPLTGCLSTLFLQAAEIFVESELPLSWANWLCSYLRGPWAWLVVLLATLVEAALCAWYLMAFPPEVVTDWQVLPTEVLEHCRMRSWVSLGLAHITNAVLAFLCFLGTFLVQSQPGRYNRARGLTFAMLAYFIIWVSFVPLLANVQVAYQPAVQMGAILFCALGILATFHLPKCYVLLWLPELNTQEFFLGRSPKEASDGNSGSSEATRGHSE
From the text: Receptor mutants were generated by site directed mutagenesis according to the QuikChange protocol (Stratagene). The forward and reverse complement primers contained the desired mutations and annealed to the same sequence on opposite strands of the plasmids. The following rTas1r3 receptor variants were generated: m1: S576L; m2: R632Q, S635P, S637Q; m3: M644L A645S; m4: A702T; m5: Q717H, V718M, V723A, E725V; m6: L735F, V738A, I740A. m6/1: V738A, I740A, m6/2: L735F, I740A, m6/3: L735F, V738A. m7: A793V, Y794L, Q795R. Subsequently a rTas1r3-V738A variant was generated. All constructs were checked by sequencing.
The cDNAs were transiently transfected into HEK293T cells stably expressing the chimeric G-protein subunit Gα16gust44 [20] using Lipofectamine 2000 (Invitrogen) according to the manufacturer's protocol. 3–4 hours after transfection, DMEM was replaced by low-glucose DMEM supplemented with GlutaMAX and 10% dialyzed FBS (Invitrogen). 22–44 hours later, cells were loaded for 1 hour with the calcium sensitive dye Fluo4-AM (2 μg/ml in DMEM, Molecular Probes). […] Calcium mobilization was monitored by an automated fluorometric imaging plate reader (FLIPR, Molecular Devices). Ligands (Sigma-Aldrich, Merck) were dissolved in C1 solution. All data were collected from at least two independent experiments carried out in triplicate. The obtained calcium signals were corrected for the response of mock transfected cells and normalized to the fluorescence of cells prior to the stimulus using ΔF/F=(F-F0)/F0.
(a, b) Responses of cells co-transfected with rTas1r2 and rTas1r3 mutants to stimulation with 1 mM stevioside. […] All sweeteners were used at concentrations which were close to the maximal obtainable signal.

| Structure (SMILES) | activation of receptor (calcium response) |
| --- | --- |
| COC(=O)[C@H](Cc1ccccc1)NC(=O)[C@@H](N)CC(=O)O [aspartame] (HELM PEPTIDE1{D.F.[CO[*:1]]}$$$$V2.0) | not |
| COc1ccc(CCC(=O)c2c(O)cc(O[C@@H]3O[C@H](CO)[C@@H](O)[C@H](O)[C@H]3O[C@@H]3O[C@@H](C)[C@H](O)[C@@H](O)[C@H]3O)cc2O)cc1O [neohesperidine dihydrochalcone] | not |
| O=S(=O)(O)NC1CCCCC1 [cyclamate] | not |

Next, values leading:

| activation of receptor (calcium response) | Structure (SMILES) |
| --- | --- |
| activated | OC[C@H]1O[C@@](CO)(O[C@H]2O[C@H](CO)[C@@H](O)[C@H](O)[C@H]2O)[C@@H](O)[C@@H]1O [sucrose] |
| activated | C=C1C[C@@]23CC[C@H]4[C@@](C)(CCC[C@@]4(C)C(=O)O[C@@H]4O[C@H](CO)[C@@H](O)[C@H](O)[C@H]4O)[C@@H]2CC[C@]1(O[C@@H]1O[C@H](CO)[C@@H](O)[C@H](O)[C@H]1O[C@@H]1O[C@H](CO)[C@@H](O)[C@H](O)[C@H]1O)C3 [stevioside] |
